Data reported in ChEMBL document CHEMBL3352641, “Discovery of pyrrolo[1,2-b]pyridazine-3-carboxamides as Janus kinase (JAK) inhibitors” (Bioorg Med Chem Lett, 2014).

Legend:
[1] = target: T1, Tyrosine-protein kinase JAK3 (Homo sapiens, UniProt P52333); test: Inhibition of JAK3 (unknown origin) by filter assay
T1 sequence (P52333 whole entry): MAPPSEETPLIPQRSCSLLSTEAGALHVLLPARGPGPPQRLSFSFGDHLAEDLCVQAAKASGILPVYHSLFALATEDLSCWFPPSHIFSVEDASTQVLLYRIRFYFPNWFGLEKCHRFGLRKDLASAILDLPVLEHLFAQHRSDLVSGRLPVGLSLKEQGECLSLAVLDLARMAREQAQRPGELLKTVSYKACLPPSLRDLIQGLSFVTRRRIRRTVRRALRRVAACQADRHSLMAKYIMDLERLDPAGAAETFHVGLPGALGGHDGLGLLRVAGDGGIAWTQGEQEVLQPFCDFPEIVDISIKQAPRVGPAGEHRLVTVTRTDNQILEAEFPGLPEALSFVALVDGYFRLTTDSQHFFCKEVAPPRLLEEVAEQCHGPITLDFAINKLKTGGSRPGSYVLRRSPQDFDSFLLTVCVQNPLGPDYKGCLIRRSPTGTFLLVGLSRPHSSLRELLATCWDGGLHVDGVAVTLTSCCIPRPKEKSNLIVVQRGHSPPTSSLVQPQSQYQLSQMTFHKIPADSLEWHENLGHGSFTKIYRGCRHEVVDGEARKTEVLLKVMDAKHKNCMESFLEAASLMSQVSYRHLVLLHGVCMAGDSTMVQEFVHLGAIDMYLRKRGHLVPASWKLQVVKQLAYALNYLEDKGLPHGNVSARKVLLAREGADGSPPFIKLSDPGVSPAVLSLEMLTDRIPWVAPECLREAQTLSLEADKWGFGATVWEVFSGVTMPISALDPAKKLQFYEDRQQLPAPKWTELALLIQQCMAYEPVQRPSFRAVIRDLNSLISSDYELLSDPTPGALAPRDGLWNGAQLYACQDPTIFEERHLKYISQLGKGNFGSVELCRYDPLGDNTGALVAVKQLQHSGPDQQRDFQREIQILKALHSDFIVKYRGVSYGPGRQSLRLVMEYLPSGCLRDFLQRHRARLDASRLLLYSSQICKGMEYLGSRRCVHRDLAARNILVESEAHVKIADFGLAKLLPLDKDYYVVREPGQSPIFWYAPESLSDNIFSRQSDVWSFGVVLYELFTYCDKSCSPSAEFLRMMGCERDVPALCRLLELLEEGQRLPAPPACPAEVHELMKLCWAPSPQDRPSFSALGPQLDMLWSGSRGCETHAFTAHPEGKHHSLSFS

[2] = target: Tyrosine-protein kinase JAK1 (Homo sapiens, UniProt P23458); test: Inhibition of JAK1 (unknown origin) bycaliper assay
[3] = target: Non-receptor tyrosine-protein kinase TYK2 (Homo sapiens, UniProt P29597); test: Inhibition of TYK2 (unknown origin) by caliper assay
[4] = target: Tyrosine-protein kinase JAK2 (Homo sapiens, UniProt O60674); test: Inhibition of JAK2 (unknown origin) by caliper assay
[5] = test system: Blood; test: Inhibition of IL2-induced IFN-gamma production in human whole blood incubated for 18 hrs by ELISA method; format: functional, tissue-based
[6] = (§1) Fraction unbound in human serum; format: ADME, cell-free
[7] = test system: Serum; test: as §1; format: ADME, cell-free
[8] = Permeability by PAMPA method; format: ADME; conditions: read-out: permeability
[9] = Permeability in human Caco2 cells; format: ADME, cell-based; conditions: Caco-2, read-out: permeability
[10] = target: T2, Cytochrome P450 1A2 (Homo sapiens, UniProt P05177); test: Inhibition of CYP1A2 (unknown origin); format: ADME
T2 sequence (P05177 whole entry): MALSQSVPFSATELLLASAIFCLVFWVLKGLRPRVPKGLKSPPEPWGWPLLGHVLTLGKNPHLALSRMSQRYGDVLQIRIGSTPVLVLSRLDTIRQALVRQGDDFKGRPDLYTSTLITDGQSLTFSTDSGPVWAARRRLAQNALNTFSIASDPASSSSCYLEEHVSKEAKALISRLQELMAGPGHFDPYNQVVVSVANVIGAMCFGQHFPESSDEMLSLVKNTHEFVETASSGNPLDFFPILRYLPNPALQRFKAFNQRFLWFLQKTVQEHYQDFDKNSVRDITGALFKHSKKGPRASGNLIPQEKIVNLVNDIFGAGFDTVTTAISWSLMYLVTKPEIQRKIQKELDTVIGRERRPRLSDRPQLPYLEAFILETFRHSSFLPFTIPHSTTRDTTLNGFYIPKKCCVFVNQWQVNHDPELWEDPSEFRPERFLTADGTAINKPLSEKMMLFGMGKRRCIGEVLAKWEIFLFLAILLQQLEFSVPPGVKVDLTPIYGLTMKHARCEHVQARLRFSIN

[11] = Inhibition of […] (unknown origin); format: ADME, Homo sapiens
[12] = target: T3, Cytochrome P450 2C8 (Homo sapiens, UniProt P10632); test: Inhibition of CYP2C8 (unknown origin); format: ADME
T3 sequence (P10632 whole entry): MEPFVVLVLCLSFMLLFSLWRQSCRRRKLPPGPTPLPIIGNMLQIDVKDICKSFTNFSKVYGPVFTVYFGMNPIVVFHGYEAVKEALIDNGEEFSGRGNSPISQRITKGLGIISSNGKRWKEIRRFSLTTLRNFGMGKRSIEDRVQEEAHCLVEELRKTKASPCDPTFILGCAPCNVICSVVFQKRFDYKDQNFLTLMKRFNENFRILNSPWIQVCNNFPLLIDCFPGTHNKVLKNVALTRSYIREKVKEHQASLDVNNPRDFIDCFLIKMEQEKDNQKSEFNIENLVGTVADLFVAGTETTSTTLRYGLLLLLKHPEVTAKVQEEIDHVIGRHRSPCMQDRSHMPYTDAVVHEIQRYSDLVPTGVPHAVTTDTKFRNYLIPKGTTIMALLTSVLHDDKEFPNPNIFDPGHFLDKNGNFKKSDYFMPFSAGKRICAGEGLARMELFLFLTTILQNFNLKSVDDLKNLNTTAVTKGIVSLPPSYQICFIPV

[13] = target: Cytochrome P450 2C9 (Homo sapiens, UniProt P11712); test: Inhibition of CYP2C9 (unknown origin); format: ADME
[14] = target: Cytochrome P450 2D6 (Homo sapiens, UniProt P10635); test: Inhibition of CYP2D6 (unknown origin); format: ADME
[15] = target: Cytochrome P450 3A4 (Homo sapiens, UniProt P08684); test: Inhibition of CYP3A4 (unknown origin); format: ADME
[16] = Half life mouse liver microsomes; format: ADME
[17] = Half life human liver microsomes; format: ADME
[18] = AUC in balb/c mouse at 2 mg/kg, iv; format: ADME, organism-based; parameters: dose 2 mg/kg, route intravenous; conditions: plasma
[19] = Half life in balb/c mouse at 2 mg/kg, iv; format: ADME, organism-based; parameters: dose 2 mg/kg, route intravenous; conditions: in vivo
[20] = Clearance in balb/c mouse at 2 mg/kg, iv; format: ADME, organism-based; parameters: dose 2 mg/kg, route intravenous; conditions: in vivo
[21] = Volume of distribution at steady state in balb/c mouse at 2 mg/kg, iv; format: ADME, organism-based; parameters: dose 2 mg/kg, route intravenous; conditions: in vivo, read-out: Vdss
[22] = Cmax in balb/c mouse at 2 mg/kg, po; format: ADME, organism-based; parameters: dose 2 mg/kg, route oral; conditions: in vivo
[23] = Tmax in balb/c mouse at 2 mg/kg, po; format: ADME, organism-based; parameters: dose 2 mg/kg, route oral; conditions: in vivo
[24] = AUC in balb/c mouse at 2 mg/kg, po; format: ADME, organism-based; parameters: dose 2 mg/kg, route oral; conditions: plasma
[25] = Half life in balb/c mouse at 2 mg/kg, po; format: ADME, organism-based; parameters: dose 2 mg/kg, route oral; conditions: in vivo
[26] = Oral bioavailability in balb/c mouse at 2 mg/kg; format: ADME, organism-based; conditions: in vivo
[27] = Cmax in balb/c mouse at 10 mg/kg, po; format: ADME, organism-based; parameters: dose 10 mg/kg, route oral; conditions: in vivo
[28] = Tmax in balb/c mouse at 10 mg/kg, po; format: ADME, organism-based; parameters: dose 10 mg/kg, route oral; conditions: in vivo
[29] = AUC in balb/c mouse at 10 mg/kg, po; format: ADME, organism-based; parameters: dose 10 mg/kg, route oral; conditions: plasma
[30] = Half life in balb/c mouse at 10 mg/kg, po; format: ADME, organism-based; parameters: dose 10 mg/kg, route oral; conditions: in vivo
[31] = Oral bioavailability in balb/c mouse at 10 mg/kg; format: ADME, organism-based; conditions: in vivo
[32] = Cmax in balb/c mouse at 50 mg/kg, po; format: ADME, organism-based; parameters: dose 50 mg/kg, route oral; conditions: in vivo
[33] = Tmax in balb/c mouse at 50 mg/kg, po; format: ADME, organism-based; parameters: dose 50 mg/kg, route oral; conditions: in vivo
[34] = AUC in balb/c mouse at 50 mg/kg, po; format: ADME, organism-based; parameters: dose 50 mg/kg, route oral; conditions: plasma
[35] = Half life in balb/c mouse at 50 mg/kg, po; format: ADME, organism-based; parameters: dose 50 mg/kg, route oral; conditions: in vivo
[36] = Oral bioavailability in balb/c mouse at 50 mg/kg; format: ADME, organism-based; conditions: in vivo
[37] = Protein binding in human serum; format: ADME, cell-free; conditions: read-out: PB (converted)

Sequence of Tyrosine-protein kinase JAK2 (O60674 whole entry): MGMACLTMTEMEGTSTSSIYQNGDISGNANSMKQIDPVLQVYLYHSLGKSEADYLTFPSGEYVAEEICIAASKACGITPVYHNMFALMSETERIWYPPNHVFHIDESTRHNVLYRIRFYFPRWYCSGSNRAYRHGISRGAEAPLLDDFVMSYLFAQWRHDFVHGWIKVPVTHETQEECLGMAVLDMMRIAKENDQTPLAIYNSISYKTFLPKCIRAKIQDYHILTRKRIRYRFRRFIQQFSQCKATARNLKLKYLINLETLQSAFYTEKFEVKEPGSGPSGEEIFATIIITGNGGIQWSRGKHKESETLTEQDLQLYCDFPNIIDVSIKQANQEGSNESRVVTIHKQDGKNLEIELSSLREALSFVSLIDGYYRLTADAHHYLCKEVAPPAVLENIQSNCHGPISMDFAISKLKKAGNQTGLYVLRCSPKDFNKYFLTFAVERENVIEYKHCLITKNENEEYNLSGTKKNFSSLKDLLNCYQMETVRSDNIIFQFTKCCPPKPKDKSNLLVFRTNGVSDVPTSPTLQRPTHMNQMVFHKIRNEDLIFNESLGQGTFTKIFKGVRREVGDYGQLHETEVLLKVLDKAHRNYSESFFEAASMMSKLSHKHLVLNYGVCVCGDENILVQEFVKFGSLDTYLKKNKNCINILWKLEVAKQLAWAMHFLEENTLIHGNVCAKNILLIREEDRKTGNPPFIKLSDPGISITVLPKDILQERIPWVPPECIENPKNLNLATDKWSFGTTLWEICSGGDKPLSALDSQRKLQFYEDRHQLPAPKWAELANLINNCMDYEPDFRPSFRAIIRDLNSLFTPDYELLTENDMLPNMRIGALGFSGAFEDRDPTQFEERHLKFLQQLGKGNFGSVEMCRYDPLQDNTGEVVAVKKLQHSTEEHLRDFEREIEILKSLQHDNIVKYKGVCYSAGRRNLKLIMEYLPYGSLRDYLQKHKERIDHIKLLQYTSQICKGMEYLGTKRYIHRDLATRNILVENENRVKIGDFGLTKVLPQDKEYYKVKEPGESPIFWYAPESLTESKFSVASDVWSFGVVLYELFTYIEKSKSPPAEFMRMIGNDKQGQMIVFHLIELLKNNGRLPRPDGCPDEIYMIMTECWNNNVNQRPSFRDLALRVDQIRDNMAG
Sequence of Non-receptor tyrosine-protein kinase TYK2 (P29597 whole entry): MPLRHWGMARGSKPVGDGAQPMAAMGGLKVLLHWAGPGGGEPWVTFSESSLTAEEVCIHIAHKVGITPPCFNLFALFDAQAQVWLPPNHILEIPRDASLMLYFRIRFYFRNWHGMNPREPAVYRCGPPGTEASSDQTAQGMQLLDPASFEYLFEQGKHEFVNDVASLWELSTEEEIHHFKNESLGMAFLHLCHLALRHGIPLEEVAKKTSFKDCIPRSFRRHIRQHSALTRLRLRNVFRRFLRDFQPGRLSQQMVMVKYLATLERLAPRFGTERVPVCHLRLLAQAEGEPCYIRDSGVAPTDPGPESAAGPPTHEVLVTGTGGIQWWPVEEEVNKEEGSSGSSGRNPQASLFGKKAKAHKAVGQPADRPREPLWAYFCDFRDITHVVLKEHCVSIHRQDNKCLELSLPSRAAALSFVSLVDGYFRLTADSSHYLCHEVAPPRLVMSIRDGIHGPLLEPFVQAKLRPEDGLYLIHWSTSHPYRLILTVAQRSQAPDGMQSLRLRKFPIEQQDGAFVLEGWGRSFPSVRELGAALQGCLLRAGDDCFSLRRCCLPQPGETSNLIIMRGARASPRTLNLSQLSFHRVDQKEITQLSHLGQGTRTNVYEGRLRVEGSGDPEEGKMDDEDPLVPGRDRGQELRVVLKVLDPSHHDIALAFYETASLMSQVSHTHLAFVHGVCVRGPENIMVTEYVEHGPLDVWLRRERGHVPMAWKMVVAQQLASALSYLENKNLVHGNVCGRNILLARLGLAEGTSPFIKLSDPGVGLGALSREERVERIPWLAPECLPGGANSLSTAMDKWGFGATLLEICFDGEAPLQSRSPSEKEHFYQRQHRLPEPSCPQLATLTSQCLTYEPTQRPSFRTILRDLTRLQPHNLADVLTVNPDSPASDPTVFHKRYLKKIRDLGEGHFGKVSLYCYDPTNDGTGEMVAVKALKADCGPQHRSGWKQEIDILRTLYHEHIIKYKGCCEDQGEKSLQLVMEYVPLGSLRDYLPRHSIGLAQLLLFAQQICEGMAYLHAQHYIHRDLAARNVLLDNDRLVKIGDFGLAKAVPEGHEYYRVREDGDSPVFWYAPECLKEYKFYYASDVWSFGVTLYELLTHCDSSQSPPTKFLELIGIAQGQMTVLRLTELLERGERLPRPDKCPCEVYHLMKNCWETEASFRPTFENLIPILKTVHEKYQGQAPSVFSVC
Sequence of Tyrosine-protein kinase JAK1 (P23458 whole entry): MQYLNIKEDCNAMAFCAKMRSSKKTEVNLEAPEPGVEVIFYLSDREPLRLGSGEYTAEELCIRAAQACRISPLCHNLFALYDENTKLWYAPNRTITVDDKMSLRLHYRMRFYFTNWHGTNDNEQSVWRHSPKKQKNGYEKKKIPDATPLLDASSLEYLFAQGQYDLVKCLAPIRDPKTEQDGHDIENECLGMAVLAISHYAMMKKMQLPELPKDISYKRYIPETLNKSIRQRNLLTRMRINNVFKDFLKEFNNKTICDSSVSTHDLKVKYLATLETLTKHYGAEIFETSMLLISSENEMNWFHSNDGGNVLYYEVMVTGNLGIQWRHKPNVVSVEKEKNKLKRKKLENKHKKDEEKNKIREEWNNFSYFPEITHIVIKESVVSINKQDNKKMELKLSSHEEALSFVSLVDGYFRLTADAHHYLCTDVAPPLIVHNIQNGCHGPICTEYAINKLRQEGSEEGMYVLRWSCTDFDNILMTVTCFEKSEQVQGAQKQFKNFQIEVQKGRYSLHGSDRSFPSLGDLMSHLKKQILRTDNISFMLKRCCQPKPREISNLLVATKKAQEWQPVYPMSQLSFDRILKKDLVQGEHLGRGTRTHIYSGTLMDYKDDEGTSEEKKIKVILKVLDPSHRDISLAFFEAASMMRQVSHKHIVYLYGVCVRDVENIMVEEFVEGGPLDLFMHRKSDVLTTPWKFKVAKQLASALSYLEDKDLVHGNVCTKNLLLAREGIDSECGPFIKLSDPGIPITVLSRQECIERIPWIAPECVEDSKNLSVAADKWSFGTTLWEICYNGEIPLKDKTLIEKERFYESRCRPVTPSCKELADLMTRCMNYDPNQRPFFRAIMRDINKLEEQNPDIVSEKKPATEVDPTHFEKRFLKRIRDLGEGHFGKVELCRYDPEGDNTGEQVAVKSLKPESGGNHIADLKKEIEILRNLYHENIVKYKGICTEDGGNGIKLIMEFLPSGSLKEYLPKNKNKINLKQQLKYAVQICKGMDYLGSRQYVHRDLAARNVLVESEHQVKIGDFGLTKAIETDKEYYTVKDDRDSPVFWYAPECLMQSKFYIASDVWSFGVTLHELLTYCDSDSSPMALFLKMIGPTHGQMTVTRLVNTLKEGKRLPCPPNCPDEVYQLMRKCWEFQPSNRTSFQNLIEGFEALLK
Sequence of Cytochrome P450 2C9 (P11712 whole entry): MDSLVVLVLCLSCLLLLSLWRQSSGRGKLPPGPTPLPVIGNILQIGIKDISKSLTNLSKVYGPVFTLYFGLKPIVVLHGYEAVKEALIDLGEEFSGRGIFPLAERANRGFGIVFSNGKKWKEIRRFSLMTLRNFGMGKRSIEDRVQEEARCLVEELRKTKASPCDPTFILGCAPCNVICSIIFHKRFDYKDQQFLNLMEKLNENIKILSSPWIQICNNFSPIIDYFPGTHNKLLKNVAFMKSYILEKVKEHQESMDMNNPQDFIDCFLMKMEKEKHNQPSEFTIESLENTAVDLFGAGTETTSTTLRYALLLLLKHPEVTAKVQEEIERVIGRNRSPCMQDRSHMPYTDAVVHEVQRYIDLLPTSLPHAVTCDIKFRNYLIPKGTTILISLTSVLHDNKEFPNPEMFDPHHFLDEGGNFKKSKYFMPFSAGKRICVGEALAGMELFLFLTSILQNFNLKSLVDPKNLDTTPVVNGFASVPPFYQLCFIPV
Sequence of Cytochrome P450 3A4 (P08684 whole entry): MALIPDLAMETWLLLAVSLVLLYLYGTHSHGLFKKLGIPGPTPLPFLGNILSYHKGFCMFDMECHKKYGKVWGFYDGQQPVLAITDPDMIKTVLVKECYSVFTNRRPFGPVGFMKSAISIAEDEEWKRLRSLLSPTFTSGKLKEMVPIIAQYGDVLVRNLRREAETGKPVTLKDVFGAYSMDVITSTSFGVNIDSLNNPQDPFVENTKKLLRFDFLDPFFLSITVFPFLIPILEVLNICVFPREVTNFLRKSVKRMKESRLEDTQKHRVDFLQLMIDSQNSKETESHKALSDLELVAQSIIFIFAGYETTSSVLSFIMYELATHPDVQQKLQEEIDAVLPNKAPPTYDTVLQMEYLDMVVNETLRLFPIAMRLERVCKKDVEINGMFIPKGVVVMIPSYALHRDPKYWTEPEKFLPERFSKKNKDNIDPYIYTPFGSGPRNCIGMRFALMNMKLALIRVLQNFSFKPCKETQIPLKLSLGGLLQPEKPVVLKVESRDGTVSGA
Sequence of Cytochrome P450 2D6 (P10635 whole entry): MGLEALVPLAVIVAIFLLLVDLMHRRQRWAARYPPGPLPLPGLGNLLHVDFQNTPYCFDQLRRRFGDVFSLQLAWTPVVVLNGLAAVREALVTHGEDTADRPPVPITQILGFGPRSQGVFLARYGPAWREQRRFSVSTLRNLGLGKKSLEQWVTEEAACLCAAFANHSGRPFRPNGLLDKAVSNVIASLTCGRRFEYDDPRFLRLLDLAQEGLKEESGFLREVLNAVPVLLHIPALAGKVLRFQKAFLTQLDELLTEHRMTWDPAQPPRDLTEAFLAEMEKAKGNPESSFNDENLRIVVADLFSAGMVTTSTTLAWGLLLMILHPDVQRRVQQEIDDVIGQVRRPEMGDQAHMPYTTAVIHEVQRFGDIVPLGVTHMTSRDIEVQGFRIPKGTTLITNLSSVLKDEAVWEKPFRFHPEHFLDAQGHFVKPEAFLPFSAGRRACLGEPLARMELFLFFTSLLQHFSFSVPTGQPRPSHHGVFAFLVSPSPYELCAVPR

C[C@@]1(CO)CCC[C@H]1Nc1c(C(N)=O)cnn2cccc12 (racemic)
IC50 [1]: 140 nM
IC50 [2]: 250 nM
IC50 [3]: 390 nM
IC50 [4]: 380 nM

CC1(C)[C@H](Nc2c(C(N)=O)cnn3cccc23)CC[C@@]1(C)N
IC50 [1]: 32 nM
IC50 [2]: 71 nM
IC50 [3]: 52 nM
IC50 [4]: 280 nM
IC50 [5]: 180 nM
fraction unbound [6]: 0.52

CC1(C)C[C@](C)(O)C[C@H]1Nc1c(C(N)=O)cnn2cccc12 (racemic)
IC50 [1]: 15 nM
IC50 [2]: 50 nM
IC50 [3]: 90 nM
IC50 [4]: 61 nM
IC50 [5]: 1700 nM

CC1(C)CCC[C@@H]1Nc1c(C(N)=O)cnn2cccc12
IC50 [1]: 66 nM
IC50 [2]: 56 nM
IC50 [3]: 130 nM
IC50 [4]: 130 nM

C[C@]1(CO)CCC[C@H]1Nc1c(C(N)=O)cnn2cccc12 (racemic)
IC50 [1]: 24 nM
IC50 [2]: 84 nM
IC50 [3]: 34 nM
IC50 [4]: 110 nM
IC50 [5]: 1500 nM

CC1(C)[C@H](Nc2c(C(N)=O)cnn3cccc23)CC[C@]1(C)N
IC50 [1]: 5 nM
IC50 [2]: 19 nM
IC50 [3]: 97 nM
IC50 [4]: 62 nM
IC50 [5]: 210 nM
Fu [7]: 52%

C[C@]1(F)CCC[C@H]1Nc1c(C(N)=O)cnn2cccc12
IC50 [1]: 1 nM
IC50 [2]: 9 nM
IC50 [3]: 2 nM
IC50 [4]: 18 nM
IC50 [5]: 260 nM
fraction unbound [6]: 0.11
Papp [8]: 76.6 ×10⁻⁶ cm/s
Papp [9]: 25.6 ×10⁻⁶ cm/s
IC50 [10]: > 20000 nM
IC50 [11]: > 20000 nM
IC50 [12]: > 20000 nM
IC50 [13]: > 20000 nM
IC50 [14]: > 20000 nM
IC50 [15]: > 20000 nM
half-life [16]: 34 min
half-life [17]: 20 min
AUC [18]: 2 µM·h
half-life [19]: 72 min
clearance [20]: 60 mL/min/kg
Vd [21]: 4.8 L/kg
Cmax [22]: 480 nM
Tmax [23]: 30 min
AUC [24]: 0.87 µM·h
half-life [25]: 84 min
bioavailability [26]: 45%
Cmax [27]: 2600 nM
Tmax [28]: 30 min
AUC [29]: 5.7 µM·h
half-life [30]: 96 min
bioavailability [31]: 59%
Cmax [32]: 8200 nM
Tmax [33]: 30 min
AUC [34]: 21 µM·h
half-life [35]: 120 min
bioavailability [36]: 46%

CC1(C)[C@H](O)CC[C@H]1Nc1c(C(N)=O)cnn2cccc12 (racemic)
IC50 [1]: 6 nM
IC50 [2]: 21 nM
IC50 [3]: 22 nM
IC50 [4]: 42 nM
IC50 [5]: 380 nM
fraction unbound [6]: 0.17

C[C@@H](Nc1c(C(N)=O)cnn2cccc12)C(C)(C)C
IC50 [1]: 8 nM
IC50 [2]: 48 nM
IC50 [3]: 16 nM
IC50 [4]: 30 nM
IC50 [5]: 930 nM
fraction unbound [37]: 0.027
Papp [8]: 86.2 ×10⁻⁶ cm/s
Papp [9]: 19.2 ×10⁻⁶ cm/s

CC1(C)C[C@@](C)(O)C[C@H]1Nc1c(C(N)=O)cnn2cccc12 (racemic)
IC50 [1]: 30 nM
IC50 [2]: 150 nM
IC50 [3]: 280 nM
IC50 [4]: 350 nM
IC50 [5]: 3200 nM

C[C@@]1(F)CCC[C@H]1Nc1c(C(N)=O)cnn2cccc12 (racemic)
IC50 [1]: 43 nM
IC50 [2]: 100 nM
IC50 [3]: 110 nM
IC50 [4]: 210 nM

CC1(C)[C@@H](O)CC[C@H]1Nc1c(C(N)=O)cnn2cccc12 (racemic)
IC50 [1]: 16 nM
IC50 [2]: 62 nM
IC50 [3]: 79 nM
IC50 [4]: 130 nM
IC50 [5]: 1200 nM
